From patent US4130648A, “5-Fluorouracil derivatives and antitumor preparations containing the same” (Eisai Co., Ltd., priority 1976, dated 1978)
Where two headings read alike, the source gives them in different places.

Columns and labels:
[1] = Acute toxicity, LD50 after three weeks observation; type: in vivo, mice (CDF1, female); details: mouse, in vivo, CDF1 mice, three weeks observation
From the text: (§1) LD50 (mg/Kg) after three weeks observation in CDF1 mice (female, 8-10 weeks old)

CDF1 mice = assay: Acute toxicity, LD50 after three weeks observation; type: in vivo, female); details: from Table 1, compared with FT-207 and 5-FU
From the text: as §1

Sarcoma-180 (S-180) [2] = assay: Inhibitory effect on the growth of S-180 ascites form (TPCV); type: in vivo, mice (ICR/JCL, female); details: for Tumor growth (TPCV : T/C %): i.p., 24 hours after implantation, day 10; for ED50: Mus musculus, ip, 240 h; for ED50 / safety index (LD50 /ED50): S-180 ascites form, from Tables 1 and 2
Method: 2. Antitumor activity against Sarcoma-180 (S-180)
(1) Inhibitory effect on the growth of S-180 ascites form (Intraperitoneal administration)
10^6 cells of S-180 were intraperitoneally implanted in ICR/JCL mice (female, 8-10 weeks old).
Compound A was administered as a solution of soybean oil and 5-FU was administered as saline solution, at 24 hours after the implantation.
Soybean oil was administered as control for the Compound A. Saline solution was administered as control for 5-FU.
Ten days after the implantation of the tumor cells, the total packed cell volumes (TPCV) were measured. The measurement of TPCV was carried out in accordance with Hoshi, A. et al., Chemical & Pharmaceutical Bulletion 17 (4), 848-850 (1969). The results are shown in Table 2, wherein T/C % means the ratio of the TPCV of the test groups to that of the control group.

Sarcoma-180 (S-180) [3] = assay: Survival effect, S-180; type: in vivo, mice (ICR/JCL, female); details: for ILS (%) over control / Mean survival days: 24 hours after implantation
Method: 10^6 cells of S-180 were intraperitoneally implanted in ICR/JCL mouse (female, 6-8 weeks old).
Compound A was administered as a solution of soybean oil at 24 hours after the implantation.
Soybean oil was administered as control for Compound A.
Survival days after implantation was measured. The increase in life-span over control groups (ILS = T/C % - 100) was calculated.

Sarcoma-180 (S-180) [4] = assay: Effect on growth of solid tumor by oral administration, S-180; type: in vivo, mice (ICR/JCL, female); details: for Tumor growth (weight : T/C %): 3 hours after implantation, 20 days after; for minimal effective dose: Mus musculus, 480 h, read-out: minimum effective dose
Method: (3) Effect on growth of solid tumor by oral administration
1.8 × 10^6 cells of S-180 were implanted subcutaneously in ICR/JCL mice (female, 6-8 weeks old).
Each of the drugs was orally administered as a solution of safflower oil 3 hours after the implantation.
Safflower oil was administered as control for each of the drugs.
Twenty days after, the tumor weight was measured, and the ratio of the tumor weight to that of the control group (T/C %) was calculated.

L-1210 leukemia [5] = assay: Survival effect, L-1210 leukemia; type: in vivo, mice (CDF1, female); details: for ILS % over controls / Mean survival days: 24 hours after implantation
Method: 3. Antitumor activity on L-1210 leukemia
10^5 cells of L-1210 leukemia were intraperitoneally implanted in CDF1 mice (female, 8-10 weeks old). […]
MCT was administered as control for Compound A.
Mean survival time after the implantation was determined, and the increase in life-span (ILS) over controls was calculated.

L-1210 leukemia [6] = assay: Duration of antitumor activity, L-1210 leukemia; type: in vivo, mice (CDF1, female)
From the text: (2) Duration of antitumor activity
10^5 cells of L-1210 leukemia were intraperitoneally implanted in the mice.
Survival days after the implantation were counted.

[7] = clinical background; cited from earlier work
[8] = ip, intraperitoneal administration
[9] = sc, subcutaneous administration

SMILES: Cc1c(C)c2c(c(C)c1OC(=O)n1cc(F)c(=O)[nH]c1=O)CCC(C)(CCCC(C)CCCC(C)CCCC(C)C)O2 (racemic) [Compound A, N1-d,l-α-tocopheryl carbonyl-5-fluorouracil]
- LD50 at 504 h [1, 8]: > 4000 mg/kg
- LD50 at 504 h [1, 9]: > 4000 mg/kg
- LD50 at 504 h ([1]; oral administration): > 4000 mg/kg
- acute toxicity (CDF1 mice): lower acute toxicity than FT-207 and 5-FU
- Tumor growth (TPCV : T/C %) (Sarcoma-180 (S-180) [2]; 62 mg/Kg): 77.5%
- Tumor growth (TPCV : T/C %) (Sarcoma-180 (S-180) [2]; 125 mg/Kg): 64.7%
- Tumor growth (TPCV : T/C %) (Sarcoma-180 (S-180) [2]; 250 mg/Kg): 30.4%
- Tumor growth (TPCV : T/C %) (Sarcoma-180 (S-180) [2]; 500 mg/Kg): 3.3%
- Tumor growth (TPCV : T/C %) (Sarcoma-180 (S-180) [2]; 1000 mg/Kg): 0%
- Tumor growth (TPCV : T/C %) (Sarcoma-180 (S-180) [2]; 2000 mg/Kg): 0%
- Tumor growth (TPCV : T/C %) (Sarcoma-180 (S-180) [2]; 4000 mg/Kg): 0%
- ED50 (Sarcoma-180 (S-180) [2]): ~170 mg/kg
- safety index (LD50 /ED50) (Sarcoma-180 (S-180) [2]): more than 24
- toxicity as an antitumor agent (Sarcoma-180 (S-180) [2]; compared with 5-FU): less toxic
- ILS (%) over control (Sarcoma-180 (S-180) [3]; 500 mg/Kg): 139.1%
- Mean survival days (Sarcoma-180 (S-180) [3]; 500 mg/Kg): 33.0 days
- ILS (%) over control (Sarcoma-180 (S-180) [3]; 1000 mg/Kg): 215.2%
- Mean survival days (Sarcoma-180 (S-180) [3]; 1000 mg/Kg): 43.5 days
- ILS (%) over control (Sarcoma-180 (S-180) [3]; 2000 mg/Kg): 160.9%
- Mean survival days (Sarcoma-180 (S-180) [3]; 2000 mg/Kg): 36.0 days
- ILS (%) over control (Sarcoma-180 (S-180) [3]; 4000 mg/Kg): 182.6%
- Mean survival days (Sarcoma-180 (S-180) [3]; 4000 mg/Kg): 39.0 days
- survival effect (Sarcoma-180 (S-180) [3]; single administration of 1/8 LD50): marked effect
- Tumor growth (weight : T/C %) (Sarcoma-180 (S-180) [4]; 62 mg/Kg oral): 106%
- Tumor growth (weight : T/C %) (Sarcoma-180 (S-180) [4]; 125 mg/Kg oral): 87%
- Tumor growth (weight : T/C %) (Sarcoma-180 (S-180) [4]; 250 mg/Kg oral): 33%
- Tumor growth (weight : T/C %) (Sarcoma-180 (S-180) [4]; 500 mg/Kg oral): 47%
- Tumor growth (weight : T/C %) (Sarcoma-180 (S-180) [4]; 1000 mg/Kg oral): 38%
- Tumor growth (weight : T/C %) (Sarcoma-180 (S-180) [4]; 2000 mg/Kg oral): 36%
- minimal effective dose (Sarcoma-180 (S-180) [4]; S-180, po): ~250 mg/kg
- availability (Sarcoma-180 (S-180) [4]; compared with FT-207 and 5-FU): higher than those of the other two drugs
- ratio of the minimum effective dose to toxic dose (LD50) (Sarcoma-180 (S-180) [4]; oral, S-180 solid tumor): less than 1/16
- ILS % over controls (L-1210 leukemia [5]; 125 mg/Kg i.p. in MCT): 0%
- Mean survival days (L-1210 leukemia [5]; 125 mg/Kg i.p. in MCT): 7.0 days
- ILS % over controls (L-1210 leukemia [5]; 250 mg/Kg i.p. in MCT): 14%
- Mean survival days (L-1210 leukemia [5]; 250 mg/Kg i.p. in MCT): 8.0 days
- ILS % over controls (L-1210 leukemia [5]; 500 mg/Kg i.p. in MCT): 40%
- Mean survival days (L-1210 leukemia [5]; 500 mg/Kg i.p. in MCT): 9.8 days
- ILS % over controls (L-1210 leukemia [5]; 1000 mg/Kg i.p. in MCT): 73%
- Mean survival days (L-1210 leukemia [5]; 1000 mg/Kg i.p. in MCT): 12.1 days
- ILS % over controls (L-1210 leukemia [5]; 2000 mg/Kg i.p. in MCT): 79%
- Mean survival days (L-1210 leukemia [5]; 2000 mg/Kg i.p. in MCT): 12.5 days
- ILS % over controls (L-1210 leukemia [5]; 4000 mg/Kg i.p. in MCT): 93%
- Mean survival days (L-1210 leukemia [5]; 4000 mg/Kg i.p. in MCT): 13.5 days
- availability (L-1210 leukemia [5]; compared with 5-FU): higher than that of 5-FU
- ratio of dose (corresponding ILS) to LD50, compared with 5-FU (L-1210 leukemia [5]; compared with 5-FU): smaller than that of 5-FU
- effectiveness (L-1210 leukemia [5]; dose of about 1/8 LD50): effective
- Mean survival days (L-1210 leukemia [6]; 1000 mg/Kg i.p. in MCT, 0 days before tumor implantation): 11.6 days
- Mean survival days (L-1210 leukemia [6]; 1000 mg/Kg i.p. in MCT, 1 day before tumor implantation): 13.0 days
- Mean survival days (L-1210 leukemia [6]; 1000 mg/Kg i.p. in MCT, 2 days before tumor implantation): 16.4 days
- Mean survival days (L-1210 leukemia [6]; 1000 mg/Kg i.p. in MCT, 3 days before tumor implantation): 11.8 days
- Mean survival days (L-1210 leukemia [6]; 1000 mg/Kg i.p. in MCT, 4 days before tumor implantation): 11.2 days
- Mean survival days (L-1210 leukemia [6]; 1000 mg/Kg i.p. in MCT, 6 days before tumor implantation): 13.5 days
- duration of antitumor effects (L-1210 leukemia [6]; from Table 6): 6 days
- survival effects (L-1210 leukemia [6]; same day of implantation, or 1-6 days prior to the implantation): exhibits survival effects

SMILES: O=c1[nH]cc(F)c(=O)[nH]1 [Example 5-FU, 5-fluorouracil]
- LD50 at 504 h [1, 8]: 150 mg/kg
- LD50 at 504 h [1, 9]: 175 mg/kg
- LD50 at 504 h ([1]; intravenous administration): 135 mg/kg
- LD50 at 504 h ([1]; oral administration): 120 mg/kg
- Tumor growth (TPCV : T/C %) (Sarcoma-180 (S-180) [2]; 34 mg/Kg): 43.3%
- Tumor growth (TPCV : T/C %) (Sarcoma-180 (S-180) [2]; 68 mg/Kg): 26.4%
- Tumor growth (TPCV : T/C %) (Sarcoma-180 (S-180) [2]; 125 mg/Kg): 4.3%
- Tumor growth (TPCV : T/C %) (Sarcoma-180 (S-180) [2]; 250 mg/Kg): died
- Tumor growth (TPCV : T/C %) (Sarcoma-180 (S-180) [2]; 500 mg/Kg): died
- ED50 (Sarcoma-180 (S-180) [2]): ~25 mg/kg
- safety index (LD50 /ED50) (Sarcoma-180 (S-180) [2]): about 5
- Tumor growth (weight : T/C %) (Sarcoma-180 (S-180) [4]; 10 mg/Kg oral): 156%
- Tumor growth (weight : T/C %) (Sarcoma-180 (S-180) [4]; 20 mg/Kg oral): 55%
- Tumor growth (weight : T/C %) (Sarcoma-180 (S-180) [4]; 40 mg/Kg oral): 52%
- Tumor growth (weight : T/C %) (Sarcoma-180 (S-180) [4]; 80 mg/Kg oral): 63%
- minimal effective dose (Sarcoma-180 (S-180) [4]; S-180, po): ~20 mg/kg
- ratio of the minimum effective dose to toxic dose (LD50) (Sarcoma-180 (S-180) [4]; oral, S-180 solid tumor): about 1/6
- ILS % over controls (L-1210 leukemia [5]; 15 mg/Kg i.p. in saline): 15%
- Mean survival days (L-1210 leukemia [5]; 15 mg/Kg i.p. in saline): 8.1 days
- ILS % over controls (L-1210 leukemia [5]; 30 mg/Kg i.p. in saline): 25%
- Mean survival days (L-1210 leukemia [5]; 30 mg/Kg i.p. in saline): 8.8 days
- ILS % over controls (L-1210 leukemia [5]; 60 mg/Kg i.p. in saline): 38%
- Mean survival days (L-1210 leukemia [5]; 60 mg/Kg i.p. in saline): 9.7 days
- Mean survival days (L-1210 leukemia [6]; 50 mg/Kg i.p. in saline, 1 day before tumor implantation): 9.0 days
- Mean survival days (L-1210 leukemia [6]; 50 mg/Kg i.p. in saline, 2 days before tumor implantation): 9.0 days
- Mean survival days (L-1210 leukemia [6]; 50 mg/Kg i.p. in saline, 4 days before tumor implantation): 8.8 days
- toxicity at the effective dosage [7]: relatively severe toxicity

SMILES: O=c1[nH]c(=O)n(C2CCCO2)cc1F (stereo not drawn) [FT-207, reference compound]
- Tumor growth (weight : T/C %) (Sarcoma-180 (S-180) [4]; 25 mg/Kg oral): 148%
- Tumor growth (weight : T/C %) (Sarcoma-180 (S-180) [4]; 50 mg/Kg oral): 269%
- Tumor growth (weight : T/C %) (Sarcoma-180 (S-180) [4]; 100 mg/Kg oral): 58%
- Tumor growth (weight : T/C %) (Sarcoma-180 (S-180) [4]; 200 mg/Kg oral): 43%
- Tumor growth (weight : T/C %) (Sarcoma-180 (S-180) [4]; 400 mg/Kg oral): 34%
- minimal effective dose (Sarcoma-180 (S-180) [4]; oral, S-180 solid tumor, from Table 4): ~100 mg/kg
- ILS % over controls (L-1210 leukemia [5]; 50 mg/Kg i.p. in saline): 0%
- Mean survival days (L-1210 leukemia [5]; 50 mg/Kg i.p. in saline): 7.0 days
- ILS % over controls (L-1210 leukemia [5]; 200 mg/Kg i.p. in saline): 1%
- Mean survival days (L-1210 leukemia [5]; 200 mg/Kg i.p. in saline): 7.1 days
- effectiveness (L-1210 leukemia [5]; dose of about 1/4 LD50): it cannot be confirmed that FT-207 is effective
- Mean survival days (L-1210 leukemia [6]; 200 mg/Kg i.p. in saline, 1 day before tumor implantation): 8.8 days
- Mean survival days (L-1210 leukemia [6]; 200 mg/Kg i.p. in saline, 2 days before tumor implantation): 9.0 days
- Mean survival days (L-1210 leukemia [6]; 200 mg/Kg i.p. in saline, 4 days before tumor implantation): 9.0 days
